{
  "source": "patent US5817634A",
  "about": "“Methods of treating diabetes mellitus and clycogen storage disease” (The UAB Research Foundation, priority 1994, dated 1998)",
  "key": {"glycogenin": {"molecular_target": "T1, glycogenin (Bos taurus, UniProt Q29RN2)", "T1 construct": "chromatography of a 105,000×g supernatant from a homogenate of beef kidney on DE-53 cellulose; tissue local slaughter house; host or cells: beef kidney", "T1 sequence (Q29RN2 1-333)": "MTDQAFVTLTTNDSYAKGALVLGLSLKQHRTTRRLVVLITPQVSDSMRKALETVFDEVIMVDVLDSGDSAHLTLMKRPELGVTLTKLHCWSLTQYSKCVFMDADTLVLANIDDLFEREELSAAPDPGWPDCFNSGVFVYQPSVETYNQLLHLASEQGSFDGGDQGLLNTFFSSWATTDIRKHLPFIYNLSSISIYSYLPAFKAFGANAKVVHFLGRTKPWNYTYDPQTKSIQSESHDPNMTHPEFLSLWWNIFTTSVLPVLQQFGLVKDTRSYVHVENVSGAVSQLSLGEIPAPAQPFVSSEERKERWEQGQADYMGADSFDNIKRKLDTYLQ", "assay": "Glycogenin assay: transfer of glucose or xylose from the UDP-sugar to exogenous glycoside acceptors", "format": "biochemical, beef", "conditions": "for inhibition of transfer of [3H]glucose to DBM by glycogenin: inhibitor 0.1-0.5 mM, acceptor DBM; for activity as glucose acceptor substrate for glycogenin: UDP-[3H]glucose donor, 60 min at 37° C.", "from_the_text": "Glycogenin is a self-glycosylating glycosyltransferase which can be obtained from muscle and which can also be obtained from rat and beef kidney. The enzyme is capable of transferring glucose and xylose from the respective UDP-sugar substrates to itself and also of transferring these sugars to exogenous acceptors, such as dodecyl-β-D-maltoside, tetradecyl-β-D-maltoside, octyl-β-D-maltoside, octyl-α-D-glucoside and other glycosides, as described herein.\nFresh beef kidney was purchased from a local slaughter house. Purification of glycogenin from kidney involves the following steps: chromatography of a 105,000×g supernatant from a homogenate of beef kidney on DE-53 cellulose, chromatofocusing and chromatography on a column of UDP-glucuronic acid-agarose, which was eluted with cytidine 5'-diphosphate(CDP). […] The protein concentration of the affinity purified enzyme was determined to be 10 μg/ml with the Quantigold protein reagent (Diversified Biotech, Newton Centre, Mass.).\nAn appropriate sample of UDP-[^3 H] glucose or UDP-[^3 H] xylose (supplied in 70% ethanol by the manufacturer) was evaporated to dryness with a gentle stream of filtered air and dissolved in 50 mM Tris Cl, pH 7.4/75 mM BAL/1.5 mM ATP. […] After incubation for 60 min at 37° C. product formation was measured by either of the two procedures described below.\nProduct isolation by precipitation with trichloracetic acid. After completed incubation, 1% bovine serum albumin (50 μl) and 10% trichloracetic acid/4% phosphotungstic acid (150 μl) were added, and the mixture was vortexed and kept on ice for at least 15 min. The precipitate was sedimented by centrifugation in a microfuge and washed three times with 5% trichloroacetic acid. The bottom of the tube, containing the pellet, was clipped off with a dog nail clipper and dropped into a 6 ml scintillation vial, the protein was dissolved in 250 μl of 2M NaOH, and, after neutralization with 250 μl of 2M HCl, 4.5 ml of Ecolume was added, and the radioactivity was measured.\nProduct isolation by adsorption to SepPak C18 cartridges. The reaction mixture was brought to a, volume of 0.5 ml by addition of water and was heated to 100° C. for 1 min. After cooling to room temperature, the mixture was centrifuged, and a 10 μl aliquot was removed for measurement of total radioactivity. The remaining 490 μl was applied with the use of a 10 ml syringe to a SepPak C18 cartridge, which had been preconditioned by washing with 8 ml of 95% ethanol, 8 ml of 70% ethanol, and 20 ml of water. After sample application, the cartridge was washed with 2×9 ml of water, followed by an additional 2 ml portion of water, and adsorbed radioactive material was then eluted with 3×4 ml of 70% ethanol. Typically, no significant radioactivity was found in the last water wash, and most of the bound radioactive material was found in the first ethanol eluate.\nGel electrophoresis and autoradiography. SDS-PAGE was carried out with slight modification of Laemmli (Laemmli, U. K., Nature, 227:680-685 (1970)). A Hoefer vertical slab gel electrophoresis unit (Hoefer Scientific Instruments, San Francisco, Calif.) was used for casting and electrophoresing with a 10% (w/v) acrylamide separating gel and a 4.5% (w/v) acrylamide stacking gel. Reaction mixtures, with total volumes of 75 μl, containing 0.15 μCi (0.26 μM) UDP-[^3 H] glucose, 10 ng of affinity purified enzyme (intact or heat denatured), in the absence and presence of increasing concentrations of DBM were incubated at 37° C. for 60 min. The reaction was terminated by addition of 5 μl of water and 20 μl of sample reducing buffer (5× concentrated) to give final concentrations of 40 mM Tris-Cl, pH 6.8, 1.5% (w/v) SDS, 6% (v/v) glycerol, 100 mM DTT and 0.002% (w/v) bromophenol blue and heated to 100° C. for 3 min. The supernatant was applied to the gel and electrophoresed at 7.5 mA for 16 hours. […]"}, "[1]": {"molecular_target": "T2, Rabbit muscle glycogen synthase (Oryctolagus cuniculus, UniProt P13834)", "T2 construct": "purchased Sigma Chemical Co; host or cells: rabbit muscle", "T2 sequence (P13834 1-735)": "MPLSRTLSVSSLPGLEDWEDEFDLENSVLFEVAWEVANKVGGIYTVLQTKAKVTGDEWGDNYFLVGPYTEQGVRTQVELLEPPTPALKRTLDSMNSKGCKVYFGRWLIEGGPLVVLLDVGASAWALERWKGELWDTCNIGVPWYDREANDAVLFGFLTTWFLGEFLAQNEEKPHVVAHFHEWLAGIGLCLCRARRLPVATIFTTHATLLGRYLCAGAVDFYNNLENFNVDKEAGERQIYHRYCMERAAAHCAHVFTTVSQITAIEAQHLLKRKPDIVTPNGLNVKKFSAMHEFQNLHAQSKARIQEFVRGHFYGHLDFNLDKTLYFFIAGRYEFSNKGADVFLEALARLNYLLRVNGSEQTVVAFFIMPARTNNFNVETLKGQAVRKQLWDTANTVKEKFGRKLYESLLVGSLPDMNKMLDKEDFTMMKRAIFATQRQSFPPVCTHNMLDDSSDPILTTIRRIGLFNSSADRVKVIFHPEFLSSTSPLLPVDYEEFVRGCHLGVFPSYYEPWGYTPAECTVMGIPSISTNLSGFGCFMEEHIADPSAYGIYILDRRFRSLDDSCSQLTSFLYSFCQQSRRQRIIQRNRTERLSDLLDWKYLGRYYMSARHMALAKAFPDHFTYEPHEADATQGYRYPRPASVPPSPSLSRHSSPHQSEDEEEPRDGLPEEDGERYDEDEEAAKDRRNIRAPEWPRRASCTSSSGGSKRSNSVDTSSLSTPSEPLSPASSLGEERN", "assay": "Glycogen synthase assay: glucose transfer from UDP-glucose to acceptor", "format": "biochemical", "conditions": "for rank as glucose acceptor for glycogen synthase: octyl-, dodecyl- and tetradecyl-maltosides compared, with G-6-P", "procedure": "Rabbit muscle glycogen synthase obtained from Sigma Chemical Co., (7.6 μg) was incubated with 0.45 μCi UDP-[^3 H]glucose (specific activity of 10.4 Ci/mmol), 1 mM UDP-glucose (glucose donor), 10 mM glucose-6-phosphate (the natural activator of glycogen synthase) and 1 mg glycogen (glucose acceptor) in 25 mM EDTA/5 mM DTT/100 mM glycine. NaOH buffer, pH 8.6 in a total volume of 100 μl for 30-240 minutes at 37° C. At different time points, glycogen was precipitated from the reaction mixtures with ethanol and the precipitate washed to remove any unincorporated radiolabel. The glycogen precipitate was then solubilized and counted in a liquid scintillation counter to quantitate the amount of [^3 H]glucose incorporated into glycogen.\nResults. When DBM (0.5 mM) replaces glycogen as the glucose acceptor in the incubation mixture, a linear transfer of glucose to DBM with time is seen up to 4 hours, with the glucose transfer amounting to about 20% of the maximal value seen with glycogen (using the SepPak C18 assay).\nWhen glycogen synthase was incubated for 24 hours with G-6-P, UDP-[^3 H]glucose and 0.5 mM DBM, several products of glucose transfer to DBM could be visualized following separation by thin layer chromatography and autoradiography. These products corresponded to the dodecyl-maltotrioside,-tetraoside, -pentaoside, -hexaoside, -heptaoside and higher oligosaccharide derivatives of DBM. […] Therefore, DBM and other suitable glycosides can serve as glucose acceptors for both glycogen synthase and glycogenin to promote glucose disposal in conditions such as hyperglycemia and diabetes mellitus. Providing an abundance of acceptor substrates in tissues, such as liver, which has a smaller number of extremely large glycogen molecules can alleviate the problem of excessive glycogen deposition in the glycogen storage diseases by promoting glucose disposal into more readily handled smaller glucose polymers built on DBM or other glycosides."}},
  "note": "“Also recorded” adds a separate entry of the source.",
  "data": [
    {"compound": "Nc1ccn([C@@H]2O[C@H](COP(=O)(O)OP(=O)(O)O)[C@@H](O)[C@H]2O)c(=O)n1", "note": "[Cytidine 5'-diphosphate, reference compound]", "values": [
      {"measurement": "inhibition of transfer of [3H]glucose to DBM by glycogenin", "setting": "glycogenin", "value": "inhibited the transfer of [^3 H]glucose to DBM by glycogenin in a dose dependent manner"},
      {"measurement": "inhibition of transfer of [3H]glucose to DBM by glycogenin", "setting": "glycogenin; listed as CDP", "value": "dose-dependent inhibition"}
    ]},
    {"compound": "CCCCCCCCCCCCCCO[C@@H]1O[C@H](CO)[C@@H](O[C@H]2O[C@H](CO)[C@@H](O)[C@H](O)[C@H]2O)[C@H](O)[C@H]1O", "note": "[tetradecyl-β-D-maltoside]", "values": [
      {"measurement": "activity as glucose acceptor substrate for glycogenin", "setting": "glycogenin", "value": "capable of serving as acceptor substrates"},
      {"measurement": "rank as glucose acceptor for glycogen synthase", "setting": "[1]", "value": "followed by DBM and tetradecylmaltoside"}
    ]},
    {"compound": "CCCCCCCCO[C@@H]1O[C@H](CO)[C@@H](O[C@H]2O[C@H](CO)[C@@H](O)[C@H](O)[C@H]2O)[C@H](O)[C@H]1O", "note": "[octyl-β-D-maltoside]", "values": [
      {"measurement": "activity as glucose acceptor substrate for glycogenin", "setting": "glycogenin", "value": "capable of serving as acceptor substrates"},
      {"measurement": "rank as glucose acceptor for glycogen synthase", "setting": "[1]", "value": "best acceptor"}
    ]},
    {"compound": "dodecyl-β-D-sucrose", "values": [
      {"measurement": "activity as glucose acceptor substrate for glycogenin", "setting": "glycogenin", "value": "much lower activity"}
    ]},
    {"compound": "CCCCCCCCO[C@@H]1O[C@H](CO)[C@@H](O)[C@H](O)[C@H]1O", "note": "[octyl-β-D-glucoside]", "values": [
      {"measurement": "activity as glucose acceptor substrate for glycogenin", "setting": "glycogenin", "value": "activities are low"}
    ]},
    {"compound": "CCCCCCCCO[C@H]1O[C@H](CO)[C@@H](O)[C@H](O)[C@H]1O", "note": "[Octyl-α-D-glucoside]", "values": [
      {"measurement": "activity as glucose acceptor substrate for glycogenin", "setting": "glycogenin", "value": "effective glucose acceptor"}
    ]},
    {"compound": "CCCCCCCCCCO[C@@H]1O[C@H](CO)[C@@H](O[C@H]2O[C@H](CO)[C@@H](O)[C@H](O)[C@H]2O)[C@H](O)[C@H]1O", "note": "[decyl-β-D-maltoside]", "values": [
      {"measurement": "activity as glucose acceptor substrate for glycogenin", "setting": "glycogenin", "value": "capable of serving as acceptor substrates"}
    ]},
    {"compound": "CCCCCCCCS[C@@H]1O[C@H](CO)[C@@H](O)[C@H](O)[C@H]1O", "note": "[octyl-β-D-thioglucoside]", "values": [
      {"measurement": "activity as glucose acceptor substrate for glycogenin", "setting": "glycogenin", "value": "more active as a glucose acceptor than octyl-β-D-glucoside"}
    ]},
    {"compound": "CCCCCCCCCCCCO[C@@H]1O[C@H](CO)[C@@H](O[C@H]2O[C@H](CO)[C@@H](O)[C@H](O)[C@H]2O)[C@H](O)[C@H]1O", "note": "[DBM, dodecyl-β-D-maltoside]", "values": [
      {"measurement": "activity as glucose acceptor substrate for glycogenin", "setting": "glycogenin", "value": "dose-dependent fashion; also recorded: best acceptor for glucose"},
      {"measurement": "xylose acceptor for glycogenin (product formed)", "setting": "glycogenin; UDP-[3H]xylose as donor substrate", "value": "DBM-xylose was formed"},
      {"measurement": "glucose acceptor activity of DBM relative to octyl-β-D-maltoside", "setting": "glycogenin; comparator octyl-β-D-maltoside", "value": "four times better"},
      {"measurement": "glucose acceptor activity of DBM relative to tetradecyl-β-D-maltoside", "setting": "glycogenin; comparator tetradecyl-β-D-maltoside", "value": "twice as active"},
      {"measurement": "glucose transfer relative to maximal value seen with glycogen", "setting": "[1]; 0.5 mM acceptor replacing glycogen, up to 4 hours, SepPak C18 assay", "value": "about 20%"},
      {"measurement": "acceptor concentration giving near-maximal glycogen synthase activity", "setting": "[1]; 0.1 to 10 mM acceptor, 60 min incubation", "value": "less than 0.5 mM"},
      {"measurement": "length of acceptor-linked oligosaccharide products formed by glycogen synthase", "setting": "[1]; 24 hours with G-6-P, UDP-[3H]glucose, 0.5 mM acceptor, TLC and autoradiography", "value": "greater than seven glucose residues"}
    ]}
  ]
}
